According to US12139492B2 (Endotarget Inc., priority 2021, dated 2024):

Tests used:
Assay type in all cases: cell-based
Mino cells = test: Antiproliferative effect, MTS cell viability assay, Mino cells; conditions: Homo sapiens, MINO, Mino mantle cell lymphoma cells; read-out: IC50 (anti-proliferation) Mino cells
In short: (§1)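 Mino and JeKo-1 mantle B-cell lymphoma lines were exposed to compound at 0, 0.001, 0.01, 0.1, 1 and 10 μM for 72 h. Viability was read by MTS reduction to formazan, measured as absorbance at 490 nm.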

BTK = BTK (Homo sapiens, UniProt Q06187); test: BTK degradation, DC50 and Dmax of Table 1 (cell line not given); design: endogenous in cells; conditions: for DC50: concentration giving 50% reduction of BTK expression level
Sequence of BTK (Q06187 whole entry): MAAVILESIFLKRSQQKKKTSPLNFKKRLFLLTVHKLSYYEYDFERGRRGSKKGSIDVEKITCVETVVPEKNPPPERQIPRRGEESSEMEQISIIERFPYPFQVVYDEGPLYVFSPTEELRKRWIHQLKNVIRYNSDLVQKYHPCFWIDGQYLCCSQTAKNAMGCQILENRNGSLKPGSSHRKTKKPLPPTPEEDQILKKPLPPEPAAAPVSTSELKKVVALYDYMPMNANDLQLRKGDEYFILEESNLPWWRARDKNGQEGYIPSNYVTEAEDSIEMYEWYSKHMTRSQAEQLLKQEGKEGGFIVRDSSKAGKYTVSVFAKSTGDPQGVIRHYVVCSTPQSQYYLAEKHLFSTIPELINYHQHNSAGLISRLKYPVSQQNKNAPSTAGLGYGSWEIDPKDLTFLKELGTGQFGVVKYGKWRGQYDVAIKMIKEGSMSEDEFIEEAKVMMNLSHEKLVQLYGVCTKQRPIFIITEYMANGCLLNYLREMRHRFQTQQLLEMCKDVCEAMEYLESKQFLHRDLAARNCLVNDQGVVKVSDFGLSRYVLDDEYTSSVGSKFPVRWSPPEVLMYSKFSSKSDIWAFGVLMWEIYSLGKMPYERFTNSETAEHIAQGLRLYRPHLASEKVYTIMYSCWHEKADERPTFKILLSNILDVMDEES

JeKo-1 cells = test: Antiproliferative effect, MTS cell viability assay, JeKo-1 cells; conditions: Homo sapiens; JeKo-1 mantle cell lymphoma cells; read-out: IC50 (anti-proliferation) JeKO-1 cells
In short: as §1

Row | Dmax (BTK) | DC50 (BTK) | Compound | IC50 (Mino cells) | IC50 (JeKo-1 cells)
1 | > 90% | 10 to 50 nM | Nc1ncnc2c1c(-c1ccc(Oc3ccccc3)cc1)nn2[C@@H]1CCCN(C(=O)N2CCC(CCN3CCC(c4ccc5c(c4)C(=O)N(C4CCC(=O)NC4=O)C5=O)CC3)CC2)C1 (stereo partly drawn) [Compound 73, 5-(1-(2-(1-((R)-3-(4-amino-3-(4-phenoxyphenyl)-1H-pyrazolo[3,4-d]pyrimidin-1-yl)piperidine-1-carbonyl)piperidin-4-yl)ethyl)piperidin-4-yl)-2-(2,6-dioxopiperidin-3-yl)isoindoline-1,3-dione] | 1000 to 10000 nM | > 10000 nM
2 | > 90% | < 10 nM | Nc1ncnc2c1c(-c1ccc(Oc3ccccc3)cc1)nn2C1CCN(CCOCCOCCC2CCN(c3ccc4c(c3)CN(C3CCC(=O)NC3=O)C4=O)CC2)CC1 (stereo not shown) [Compound 18, 3-(5-(4-(2-(2-(2-(4-(4-amino-3-(4-phenoxyphenyl)-1H-pyrazolo[3,4-d]pyrimidin-1-yl)piperidin-1-yl)ethoxy)ethoxy)ethyl)piperidin-1-yl)-1-oxoisoindolin-2-yl)piperidine-2,6-dione] | 1000 to 10000 nM | < 1000 nM
3 | > 75% | > 50 nM | Nc1ncnc2c1c(-c1ccc(Oc3ccccc3)cc1)nn2[C@@H]1CCCN(C(=O)N2CCC(CCCC3CCN(c4ccc5c(c4)CN(C4CCC(=O)NC4=O)C5=O)CC3)CC2)C1 (stereo partly shown) [Compound 114] | 1000 to 10000 nM | 1000 to 10000 nM
4 | > 75% | 10 to 50 nM | Nc1ncnc2c1c(-c1ccc(Oc3ccccc3)cc1)nn2[C@@H]1CCCN(C2CCN(C(=O)N3CCC(CCN4CCC(c5ccc6c(c5)C(=O)N(C5CCC(=O)NC5=O)C6=O)CC4)CC3)CC2)C1 (stereo partly drawn) [Compound 183, 5-(1-(2-(1-((R)-3-(4-amino-3-(4-phenoxyphenyl)-1H-pyrazolo[3,4-d]pyrimidin-1-yl)-[1,4′-bipiperidine]-1′-carbonyl)piperidin-4-yl)ethyl)piperidin-4-yl)-2-(2,6-dioxopiperidin-3-yl)isoindoline-1,3-dione] | 1000 to 10000 nM | > 10000 nM
5 | > 90% | 10 to 50 nM | Nc1ncnc2c1c(-c1ccc(Oc3ccccc3)cc1)nn2C1CCN(CCOCCN2CCC(c3ccc4c(c3)CN(C3CCC(=O)NC3=O)C4=O)CC2)CC1 (stereo not shown) [Compound 12, 3-(5-(1-(2-(2-(4-(4-amino-3-(4-phenoxyphenyl)-1H-pyrazolo[3,4-d]pyrimidin-1-yl)piperidin-1-yl)ethoxy)ethyl)piperidin-4-yl)-1-oxoisoindolin-2-yl)piperidine-2,6-dione] | < 1000 nM | < 1000 nM
6 | > 90% | < 10 nM | Nc1ncnc2c1c(-c1ccc(Oc3ccccc3)cc1)nn2C1CCN(C(=O)N2CCC(CN3CCC(c4ccc5c(c4)C(=O)N(C4CCC(=O)NC4=O)C5=O)CC3)CC2)CC1 (stereo not shown) [Compound 91, 5-(1-((1-(4-(4-amino-3-(4-phenoxyphenyl)-1H-pyrazolo[3,4-d]pyrimidin-1-yl)piperidine-1-carbonyl)piperidin-4-yl)methyl)piperidin-4-yl)-2-(2,6-dioxopiperidin-3-yl)isoindoline-1,3-dione] | 1000 to 10000 nM | 1000 to 10000 nM
7 | > 90% | 10 to 50 nM | Nc1ncnc2c1c(-c1ccc(Oc3ccccc3)cc1)nn2[C@@H]1CCCN(CC2CCN(C(=O)N3CCC(C4CCN(c5ccc6c(c5)CN(C5CCC(=O)NC5=O)C6=O)CC4)CC3)CC2)C1 (stereo partly drawn) [Compound 30, 3-(5-(1′-(4-(((R)-3-(4-amino-3-(4-phenoxyphenyl)-1H-pyrazolo[3,4-d]pyrimidin-1-yl)piperidin-1-yl)methyl)piperidine-1-carbonyl)-[4,4′-bipiperidin]-1-yl)-1-oxoisoindolin-2-yl)piperidine-2,6-dione] | 1000 to 10000 nM | 1000 to 10000 nM
8 | > 75% | 10 to 50 nM | Nc1ncnc2c1c(-c1ccc(Oc3ccccc3)cc1)nn2[C@@H]1CCCN(C2CCN(C(=O)N3CCN(CCCN4CCC(c5ccc6c(c5)C(=O)N(C5CCC(=O)NC5=O)C6=O)CC4)CC3)CC2)C1 (stereo partly drawn) [Compound 191, 5-(1-(3-(4-((R)-3-(4-amino-3-(4-phenoxyphenyl)-1H-pyrazolo[3,4-d]pyrimidin-1-yl)-[1,4′-bipiperidine]-1′-carbonyl)piperazin-1-yl)propyl)piperidin-4-yl)-2-(2,6-dioxopiperidin-3-yl)isoindoline-1,3-dione] | > 10000 nM | > 10000 nM
9 | > 90% | > 50 nM | Nc1ncnc2c1c(-c1ccc(Oc3ccccc3)cc1)nn2C1CCN(CC2CCN(C(=O)N3CCC(C4CCN(c5ccc6c(c5)CN(C5CCC(=O)NC5=O)C6=O)CC4)CC3)CC2)CC1 (stereo not shown) [Compound 40, 3-(5-(1′-(4-((4-(4-amino-3-(4-phenoxyphenyl)-1H-pyrazolo[3,4-d]pyrimidin-1-yl)piperidin-1-yl)methyl)piperidine-1-carbonyl)-[4,4′-bipiperidin]-1-yl)-1-oxoisoindolin-2-yl)piperidine-2,6-dione] | 1000 to 10000 nM | 1000 to 10000 nM
10 | > 90% | 10 to 50 nM | Nc1ncnc2c1c(-c1ccc(Oc3ccccc3)cc1)nn2C1CCN(CCOCCC2CCN(c3ccc4c(c3)CN(C3CCC(=O)NC3=O)C4=O)CC2)CC1 (stereo not shown) [Compound 20, 3-(5-(4-(2-(2-(4-(4-amino-3-(4-phenoxyphenyl)-1H-pyrazolo[3,4-d]pyrimidin-1-yl)piperidin-1-yl)ethoxy)ethyl)piperidin-1-yl)-1-oxoisoindolin-2-yl)piperidine-2,6-dione] | 1000 to 10000 nM | 1000 to 10000 nM
11 | > 50% | > 50 nM | Nc1ncnc2c1c(-c1ccc(Oc3ccccc3)cc1)nn2[C@@H]1CCCN(C2CCN(C(=O)N3CCN(CCCC4CCN(c5ccc6c(c5)CN(C5CCC(=O)NC5=O)C6=O)CC4)CC3)CC2)C1 (stereo partly drawn) [Compound 190, 3-(5-(4-(3-(4-((R)-3-(4-amino-3-(4-phenoxyphenyl)-1H-pyrazolo[3,4-d]pyrimidin-1-yl)-[1,4′-bipiperidine]-1′-carbonyl)piperazin-1-yl)propyl)piperidin-1-yl)-1-oxoisoindolin-2-yl)piperidine-2,6-dione] | > 10000 nM | > 10000 nM
12 | > 90% | 10 to 50 nM | Nc1ncnc2c1c(-c1ccc(Oc3ccccc3)cc1)nn2C1CCN(CCOCCN2CCC(c3ccc4c(c3)C(=O)N(C3CCC(=O)NC3=O)C4=O)CC2)CC1 (stereo not shown) [Compound 11, 5-(1-(2-(2-(4-(4-amino-3-(4-phenoxyphenyl)-1H-pyrazolo[3,4-d]pyrimidin-1-yl)piperidin-1-yl)ethoxy)ethyl)piperidin-4-yl)-2-(2,6-dioxopiperidin-3-yl)isoindoline-1,3-dione] | 1000 to 10000 nM | 1000 to 10000 nM
13 | > 90% | < 10 nM | Nc1ncnc2c1c(-c1ccc(Oc3ccccc3)cc1)nn2[C@@H]1CCCN(C(=O)N2CCN(CCC3CCN(c4ccc5c(c4)C(=O)N(C4CCC(=O)NC4=O)C5=O)CC3)CC2)C1 (stereo partly drawn) [Compound 67, 5-(4-(2-(4-((R)-3-(4-amino-3-(4-phenoxyphenyl)-1H-pyrazolo[3,4-d]pyrimidin-1-yl)piperidine-1-carbonyl)piperazin-1-yl)ethyl)piperidin-1-yl)-2-(2,6-dioxopiperidin-3-yl)isoindoline-1,3-dione] | 1000 to 10000 nM | 1000 to 10000 nM
14 | > 90% | 10 to 50 nM | Nc1ncnc2c1c(-c1ccc(Oc3ccccc3)cc1)nn2[C@@H]1CCCN(CC2CCN(CCC3CCN(c4ccc5c(c4)CN(C4CCC(=O)NC4=O)C5=O)CC3)CC2)C1 (stereo partly drawn) [Compound 132, 3-(5-(4-(2-(4-(((R)-3-(4-amino-3-(4-phenoxyphenyl)-1H-pyrazolo[3,4-d]pyrimidin-1-yl)piperidin-1-yl)methyl)piperidin-1-yl)ethyl)piperidin-1-yl)-1-oxoisoindolin-2-yl)piperidine-2,6-dione] | 1000 to 10000 nM | 1000 to 10000 nM
15 | > 90% | 10 to 50 nM | Nc1ncnc2c1c(-c1ccc(Oc3ccccc3)cc1)nn2C1CCN(CC2CCN(C(=O)N3CCC(N4CCN(c5ccc6c(c5)CN(C5CCC(=O)NC5=O)C6=O)CC4)CC3)CC2)CC1 (stereo not shown) [Compound 38, 3-(5-(4-(1-(4-((4-(4-amino-3-(4-phenoxyphenyl)-1H-pyrazolo[3,4-d]pyrimidin-1-yl)piperidin-1-yl)methyl)piperidine-1-carbonyl)piperidin-4-yl)piperazin-1-yl)-1-oxoisoindolin-2-yl)piperidine-2,6-dione] | < 1000 nM | < 1000 nM
16 | > 90% |  | Nc1ncnc2c1c(-c1ccc(Oc3ccccc3)cc1)nn2C1CCN(CC2CCN(C(=O)N3CCC(CCN4CCN(c5ccc6c(c5)C(=O)N(C5CCC(=O)NC5=O)C6=O)CC4)CC3)CC2)CC1 (stereo not shown) [Compound 43, 5-(4-(2-(1-(4-((4-(4-amino-3-(4-phenoxyphenyl)-1H-pyrazolo[3,4-d]pyrimidin-1-yl)piperidin-1-yl)methyl)piperidine-1-carbonyl)piperidin-4-yl)ethyl)piperazin-1-yl)-2-(2,6-dioxopiperidin-3-yl)isoindoline-1,3-dione] | 1000 to 10000 nM | 1000 to 10000 nM
17 | > 90% | 10 to 50 nM | Nc1ncnc2c1c(-c1ccc(Oc3ccccc3)cc1)nn2[C@@H]1CCCN(C2CCN(C(=O)N3CCN(CC4CCN(c5ccc6c(c5)C(=O)N(C5CCC(=O)NC5=O)C6=O)CC4)CC3)CC2)C1 (stereo partly drawn) [Compound 171, 5-(4-((4-((R)-3-(4-amino-3-(4-phenoxyphenyl)-1H-pyrazolo[3,4-d]pyrimidin-1-yl)-[1,4′-bipiperidine]-1′-carbonyl)piperazin-1-yl)methyl)piperidin-1-yl)-2-(2,6-dioxopiperidin-3-yl)isoindoline-1,3-dione] | 1000 to 10000 nM | 1000 to 10000 nM
